Reference: publication PMC8664850, “Design, synthesis, and biological evaluation of novel urolithins derivatives as potential phosphodiesterase II inhibitors” (Scientific Reports, 2021)

Tests used:
[1] = target: T1, Phosphodiesterase II (PDE2) (Homo sapiens, UniProt O00408); assay: PDE2 enzyme inhibitory activity, AlphaScreen cAMP kit method; type: biochemical; settings: in vitro, enzyme level, seven concentrations, mean of at least three experiments
T1 construct: the recombinant plasmid pET15b-PDE2A (580–941) was donated; made in house; host or cells: E. coli BL21-Codon Plus (DE3)
T1 sequence (O00408 580-941): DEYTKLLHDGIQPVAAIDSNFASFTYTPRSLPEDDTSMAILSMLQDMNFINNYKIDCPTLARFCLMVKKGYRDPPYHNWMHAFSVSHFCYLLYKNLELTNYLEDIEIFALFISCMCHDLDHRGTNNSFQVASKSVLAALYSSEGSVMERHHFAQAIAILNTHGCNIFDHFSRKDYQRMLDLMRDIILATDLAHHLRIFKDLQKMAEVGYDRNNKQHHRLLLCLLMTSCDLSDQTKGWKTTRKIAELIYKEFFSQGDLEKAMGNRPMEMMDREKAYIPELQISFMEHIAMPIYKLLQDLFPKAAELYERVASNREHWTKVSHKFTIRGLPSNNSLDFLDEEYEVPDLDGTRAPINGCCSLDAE
From the text: The AlphaScreen kit method was used to detect PDE2 inhibitory activity of the 27 synthesized compounds (2a–n and 4a–m) in vitro, each diluted at seven concentrations, and each carried out with three sets of parallel experiments. The IC50 values were obtained by fitting calculations using software Graphpad Prism 7.

Row | Structure (SMILES) | IC50 [1] | melting point
1 | Cc1ccc2c(c1)c(=O)oc1cc(O)ccc12 [Compound 1, 3-hydroxy-8-methyl-6H-benzo [C]chromen-6-one] | > 100 µM | –
2 | CCOc1ccc2c(c1)oc(=O)c1cc(C)ccc12 [Compound 2a, 3-ethoxy-8-methyl-6H-benzo[c]chromen-6-one] | > 100 µM | –
3 | CCCOc1ccc2c(c1)oc(=O)c1cc(C)ccc12 [Compound 2b, 8-methyl-3-propoxy-6H-benzo[c]chromen-6-one] | > 100 µM | 112.3 to 112.6 °C
4 | Cc1ccc2c(c1)c(=O)oc1cc(OC(C)C)ccc12 [Compound 2c, 3-isopropoxy-8-methyl-6H-benzo[c]chromen-6-one] | > 100 µM | 102.3 to 103 °C
5 | CCC(C)Oc1ccc2c(c1)oc(=O)c1cc(C)ccc12 (centres unmarked) [Compound 2d, 3-(sec-butoxy)-8-methyl-6H-benzo[c]chromen-6-one] | > 100 µM | 62.6 to 63.4 °C
6 | CCCCCOc1ccc2c(c1)oc(=O)c1cc(C)ccc12 [Compound 2e, 8-methyl-3-(pentyloxy)-6H-benzo[c]chromen-6-one] | 34 µM | –
7 | Cc1ccc2c(c1)c(=O)oc1cc(OCC3CCCC3)ccc12 [Compound 2f, 3-(cyclopentylmethoxy)-8-methyl-6H-benzo[c]chromen-6-one] | > 100 µM | 122.8 to 123.6 °C
8 | Cc1ccc2c(c1)c(=O)oc1cc(OCC3CCCO3)ccc12 (centres unmarked) [Compound 2g, 8-methyl-3-((tetrahydrofuran-2-yl)methoxy)-6H-benzo[c]chromen-6-one] | > 100 µM | 122.8 to 123.6 °C
9 | Cc1ccc2c(c1)c(=O)oc1cc(OCC3OCCO3)ccc12 [Compound 2h, 3-((1,3-dioxolan-2-yl)methoxy)-8-methyl-6H-benzo[c]chromen-6-one] | > 100 µM | 148.2 to 148.8 °C
10 | Cc1ccc2c(c1)c(=O)oc1cc(OCCC3OCCO3)ccc12 [Compound 2i, 3-(2-(1,3-dioxolan-2-yl)ethoxy)-8-methyl-6H-benzo[c]chromen-6-one] | > 100 µM | –
11 | Cc1ccc2c(c1)c(=O)oc1cc(OCC3CCCCC3)ccc12 [Compound 2j, 3-(cyclohexylmethoxy)-8-methyl-6H-benzo[c]chromen-6-one] | 65.7 µM | 113.3 to 115.1 °C
12 | Cc1ccc2c(c1)c(=O)oc1cc(OCC3CCOCC3)ccc12 [Compound 2k, 8-methyl-3-((tetrahydro-2H-pyran-4-yl)methoxy)-6H-benzo[c]chromen-6-one] | > 100 µM | 148 to 148.6 °C
13 | Cc1ccc2c(c1)c(=O)oc1cc(OCc3ccccc3F)ccc12 [Compound 2l, 3-((2-fluorobenzyl)oxy)-8-methyl-6H-benzo[c]chromen-6-one] | > 100 µM | 154.9 to 155.5 °C
14 | Cc1ccc2c(c1)c(=O)oc1cc(OCCC3OCCCO3)ccc12 [Compound 2m, 3-(2-(1,3-dioxan-2-yl)ethoxy)-8-methyl-6H-benzo[c]chromen-6-one] | > 100 µM | 170.1 to 172 °C
15 | COc1cc(COc2ccc3c(c2)oc(=O)c2cc(C)ccc23)cc(OC)c1 [Compound 2n, 3-((3,5-dimethoxybenzyl)oxy)-8-methyl-6H-benzo[c]chromen-6-one] | > 100 µM | 158.7 to 160.2 °C
16 | O=c1oc2cc(O)ccc2c2c1CCCC2 [Compound 3, 3-Hydroxy-7,8,9,10-tetrahydro-6H-benzo[c]chromen-6-one] | 93.2 µM | –
17 | CCC(C)Oc1ccc2c3c(c(=O)oc2c1)CCCC3 (centres unmarked) [Compound 4d, 3-(sec-butoxy)-7,8,9,10-tetrahydro-6H-benzo[c]chromen-6-one] | > 100 µM | 74 to 74.2 °C

More lines, now with the values ahead:

Row | IC50 [1] | melting point | Structure (SMILES)
18 | > 100 µM | 104.2 to 105.6 °C | CCOc1ccc2c3c(c(=O)oc2c1)CCCC3 [Compound 4a, 3-ethoxy-7,8,9,10-tetrahydro-6H-benzo[c]chromen-6-one]
19 | > 100 µM | 107.1 to 108.3 °C | CCCOc1ccc2c3c(c(=O)oc2c1)CCCC3 [Compound 4b, 3-propoxy-7,8,9,10-tetrahydro-6H-benzo[c]chromen-6-one]
20 | 34.3 µM | 85.4 to 87.5 °C | CC(C)Oc1ccc2c3c(c(=O)oc2c1)CCCC3 [Compound 4c, 3-isopropoxy-7,8,9,10-tetrahydro-6H-benzo[c]chromen-6-one]
21 | > 100 µM | 110.6 to 112.4 °C | CCCCCOc1ccc2c3c(c(=O)oc2c1)CCCC3 [Compound 4e, 3-(pentyloxy)-7,8,9,10-tetrahydro-6H-benzo[c]chromen-6-one]
22 | > 100 µM | 112.2 to 114 °C | O=c1oc2cc(OCC3CCCO3)ccc2c2c1CCCC2 (centres unmarked) [Compound 4f, 3-((tetrahydrofuran-2-yl)methoxy)-7,8,9,10-tetrahydro-6H-benzo[c]chromen-6-one]
23 | > 100 µM | 128.1 to 129.5 °C | O=c1oc2cc(OCC3OCCO3)ccc2c2c1CCCC2 [Compound 4g, 3-((1,3-dioxolan-2-yl)methoxy)-7,8,9,10-tetrahydro-6H-benzo[c]chromen-6-one]
24 | > 100 µM | 111 to 112.3 °C | O=c1oc2cc(OCCC3OCCO3)ccc2c2c1CCCC2 [Compound 4h, 3-(2-(1,3-dioxolan-2-yl)ethoxy)-7,8,9,10-tetrahydro-6H-benzo[c]chromen-6-one]
25 | > 100 µM | 107.2 to 109.3 °C | O=c1oc2cc(OCC3CCCCC3)ccc2c2c1CCCC2 [Compound 4i, 3-(cyclohexylmethoxy)-7,8,9,10-tetrahydro-6H-benzo[c]chromen-6-one]
26 | > 100 µM | 124.6 to 125.2 °C | O=c1oc2cc(OCC3CCOCC3)ccc2c2c1CCCC2 [Compound 4j, 3-((tetrahydro-2H-pyran-4-yl)methoxy)-7,8,9,10-tetrahydro-6H-benzo[c]chromen-6-one]
27 | > 100 µM | 107.5 to 108.4 °C | O=c1oc2cc(OCCC3OCCCO3)ccc2c2c1CCCC2 [Compound 4k, 3-(2-(1,3-dioxan-2-yl)ethoxy)-7,8,9,10-tetrahydro-6H-benzo[c]chromen-6-one]
28 | > 100 µM | 124.2 to 125.6 °C | O=c1oc2cc(OCc3ccccc3F)ccc2c2c1CCCC2 [Compound 4l, 3-((2-fluorobenzyl)oxy)-7,8,9,10-tetrahydro-6H-benzo[c]chromen-6-one]
29 | > 100 µM | 98.5 to 99.2 °C | COc1cc(COc2ccc3c4c(c(=O)oc3c2)CCCC4)cc(OC)c1 [Compound 4m, 3-((3,5-dimethoxybenzyl)oxy)-7,8,9,10-tetrahydro-6H-benzo[c]chromen-6-one]
